The values that follow come from patent US7605175B2, “Inhibitors of cyclin-dependent kinases, compositions and uses related thereto” (GPC Biotech AG, priority 2001, dated 2009).

pIC50: −log10 of the molar value.

One may read the pIC50 as the negative decadic logarithm of the IC50, by convention in mol/L.

The subject of experiment [1] is HCT-116 cells. In words: Calcein AM viability assay, HCT-116. Type of experiment: cell-based. Conditions: Homo sapiens, HCT-116, read-out: HCT-116 viability IC50. The protocol:
The potency of Cdk inhibitors, as measured by loss of cellular viability, was determined with the Calcein AM assay (Molecular Probes). Calcein AM is a substrate of intracellular esterases, which is cleaved only in viable cells to generate a fluorescent product that can be quantified with a fluorescent plate reader. The fluorescent signal is proportional to the number of viable cells, and thus loss of signal in response to the exposure of cells to Cdk inhibitors correlates with a loss of viability. This assay can distinguish cell cycle arrest, in which cells may still by viable, from loss of viability and is thus well suited for the evaluation of Cdk inhibitors. A compound that is a potent cytotoxic, may cause significant loss of cell viability in such assay.
Cellular IC50's were determined in the human colorectal carcinoma cell line, HCT-116, and the normal human fibroblast, IMR90. Protein adjusted IC50's were also determined in HCT-116.
HCT-116 or IMR90 cells were recovered from sub-confluent plates by trypsinization and 1,000 or 4,000 cells, respectively, were plated in 24-well dishes and incubated overnight at 37° C., 5% CO2. HCT-116 cells were cultured in RPMI-1640, 10% FCS, and IMR90 cells were cultured in Minimum Essential Medium-alpha, 10% FCS. After overnight incubation to allow adherence, the media was aspirated from each well and replaced with media containing a test compound at a concentration from 0 to 250 nM, spanning a total of 7 doses. The plates were returned to the incubator and cultured for an additional 72 hours (3 days). […] After 72-hours incubation with the test compound, the cells were washed twice with 1×PBS, taking special care to remove all residual buffer.
A 5 μM Calcein AM solution was prepared by dissolving a […] aliquot of Calcein (Molecular Probes catalog # C3100) in 50 μl DMSO. After the Calcein had completely dissolved (10 minutes at room temperature), it was diluted into 10 ml PBS. Calcein/PBS (0.5 ml) was added to each well. The plates were incubated for 75 minutes at 37° C. (protected from light) and the fluorescent signal was read on a fluorescent plate reader (excitation 485/20 and emission 530/25).

The target in experiment [2] is T1, Cdk2/cyclin E (Homo sapiens, UniProt P24941).
T1 construct: made in house; host or cells: Sf9 insect cells
Nature of the experiment: Biochemical kinase assay Cdk2/cyclin E. Conditions: Table 6. The source says: (§1) Enzymes: Cdc2/cyclin B was obtained from commercial sources. Cdk2/his-cyclin Eshort was expressed in Sf9 cells. Cdk2/cyclin A, cdk4/cyclin D1, and cdk6/cyclin D2 were expressed in Sf9 cells. Protein kinase A (catalytic subunit, from bovine heart) and protein kinase C (mixed isozymes from rat brain) were obtained from commercial sources.
(§2) Substrates: Histone H1 was from commercial sources. GST-Rb is glutathione-S-trans-ferase fused to the N-terminal of residues 379-928 of the Rb protein.
(§3) Cdk2/cyclin E, Cdk2/cyclin A, Cdk4/cyclin D1, and Cdk6/cyclin D2 activity was determined using a glutathione-sepharose capture assay. The enzymes were expressed in Sf9 insect cells as heterodimers, and the substrate (GST-Rb) was glutathione-S-transferase fused to residues 379 to 928 of Rb retinoblastoma protein, expressed in E. coli. The assay solution contained 50 mM Tris.HCl, 10 mM MgCl2, 1 mM dithiothreitol, 50 μM adenosine triphosphate, 2 μCi [γ-^33P]adenosine triphosphate, 10% dimethylsulfoxide (from compounds), pH 7.5, 40 μg GST-Rb, and enzyme in a 100 μL volume. Compounds were added at various concentrations between 1 nM and 10 μM. The reaction was allowed to proceed for 15 min at 30° C. and was stopped by the addition of 70 μL of stop solution (237 mM disodium ethylene-diamine tetraacetate, 105 mM adenosine triphosphate, pH 8.0). The GST-Rb was captured by binding to glutathione-sepharose bead (Amersham) for 110 min, and the suspension was filtered through a glass fiber filter. After washing the retained beads five time with phosphate-buffered saline containing 0.3% (w/v) Tween-20, the amount of ^33P incorporated was determined by scintillation counting after adding 100 μL scintillant. Relative activity was determined by dividing the amount of radioactivity incorporated in the presence of compound by the amount of radioactivity incorporated in a control experiment containing DMSO alone but no compound. The background radioactivity, determined in an experiment containing 50 mM disodium ethylenediamine tetraacetate in place of compound, was subtracted from all results before calculations.

In experiment [3] the target is T2, Cdc2/cyclin B (Homo sapiens, UniProt P06493).
T2 construct: purchased
T2 sequence (P06493 whole entry, species assumed): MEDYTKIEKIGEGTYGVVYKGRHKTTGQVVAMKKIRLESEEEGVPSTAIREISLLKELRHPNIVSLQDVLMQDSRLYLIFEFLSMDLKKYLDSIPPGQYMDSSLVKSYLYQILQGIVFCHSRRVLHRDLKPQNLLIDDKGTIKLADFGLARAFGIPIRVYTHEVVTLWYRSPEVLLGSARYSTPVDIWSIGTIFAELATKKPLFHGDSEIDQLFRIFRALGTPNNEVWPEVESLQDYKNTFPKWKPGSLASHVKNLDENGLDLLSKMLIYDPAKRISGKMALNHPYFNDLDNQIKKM
T2 sequence (P14635 whole entry partner, species assumed): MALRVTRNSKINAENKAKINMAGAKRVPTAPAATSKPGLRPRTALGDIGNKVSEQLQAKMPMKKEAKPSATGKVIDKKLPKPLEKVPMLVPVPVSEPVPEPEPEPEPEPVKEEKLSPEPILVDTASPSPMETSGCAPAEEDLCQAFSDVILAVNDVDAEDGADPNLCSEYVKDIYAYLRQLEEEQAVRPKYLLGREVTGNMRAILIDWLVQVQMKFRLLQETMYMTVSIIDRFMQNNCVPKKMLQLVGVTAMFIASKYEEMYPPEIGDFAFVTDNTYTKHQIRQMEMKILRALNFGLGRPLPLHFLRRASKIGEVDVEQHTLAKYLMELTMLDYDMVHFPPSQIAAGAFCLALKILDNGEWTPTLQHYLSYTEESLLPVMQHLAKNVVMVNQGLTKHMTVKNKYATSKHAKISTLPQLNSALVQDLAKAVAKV
Nature of the experiment: Biochemical kinase assay Cdc2/cyclin B. Conditions: Table 6.
Excerpt: as §1, §2
Assays: Cdc2/cyclinB activity was determined by measuring incorporation of radio-activity from adenosine [γ-^32P]triphosphate into Histone H1 using a TCA precipitation assay. Cdc2/cyclin B kinase and Histone H1 were obtained from commercial sources. The final assay solution contained 50 mM Tris.HCl, 10 mM MgCl2, 1 mM dithiothreitol, 50 μM adenosine triphosphate, 2 μCi ^32P, 10% dimethylsulfoxide (from compounds), pH 7.5, 20 μg Histone H1, 6 U enzyme in a 50 μL volume. Compounds were added at various concentrations between 1 nM and 10 μM. The reaction was started with the addition of enzyme, allowed to proceed for 20 min at 30° C., and stopped by the addition of 20 μL of stop solution (237 mM disodium ethylenediamine tetraacetate, 105 mM adenosine triphosphate, pH 8.0). The protein was precipitated by the addition of 35 μL 70% (w/v) trichloroacetic acid, and the precipitate was captured on a 96-well glass fiber filter plate (Millipore, Inc.), which had been wet with 25% (w/v) trichloroacetic acid. The filter was washed ten times with 25% (w/v) trichloroacetic acid, and the amount of incorporated ^32P was determined by scintillation counting after adding 100 μL scintillant (Microscint 20, Packard Instruments). Relative activity was determined by dividing the amount of radioactivity incorporated in the presence of compound by the amount of radioactivity incorporated in a control experiment containing DMSO alone but no compound. The background radioactivity, determined in an experiment containing 50 mM EDTA in place of compound, was subtracted from all results before calculations.

Experiment [4] addresses T3, Cdk4/cyclin D1 (Homo sapiens, UniProt P11802).
T3 construct: made in house; host or cells: Sf9 insect cells
Nature of the experiment: Biochemical kinase assay Cdk4/cyclin D1. Conditions: Table 6.
Excerpt: as §1, §2, §3

T3 sequence (P11802 whole entry, species assumed): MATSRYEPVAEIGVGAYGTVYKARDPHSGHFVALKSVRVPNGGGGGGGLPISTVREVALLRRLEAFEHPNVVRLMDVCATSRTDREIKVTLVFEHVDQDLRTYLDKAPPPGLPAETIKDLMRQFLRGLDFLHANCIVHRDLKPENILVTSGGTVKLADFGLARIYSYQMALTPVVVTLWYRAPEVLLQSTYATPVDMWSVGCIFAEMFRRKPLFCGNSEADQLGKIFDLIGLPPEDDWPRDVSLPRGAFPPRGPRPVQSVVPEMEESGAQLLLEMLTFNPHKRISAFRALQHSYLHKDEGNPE
T3 sequence (P24385 whole entry partner, species assumed): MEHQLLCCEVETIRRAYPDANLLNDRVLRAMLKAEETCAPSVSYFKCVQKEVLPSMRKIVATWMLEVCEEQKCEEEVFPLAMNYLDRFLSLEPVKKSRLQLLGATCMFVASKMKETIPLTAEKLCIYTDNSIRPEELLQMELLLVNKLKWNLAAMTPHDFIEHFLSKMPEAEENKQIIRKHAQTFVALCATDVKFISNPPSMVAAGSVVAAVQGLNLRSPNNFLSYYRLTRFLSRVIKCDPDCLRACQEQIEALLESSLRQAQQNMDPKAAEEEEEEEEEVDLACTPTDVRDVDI

In the case of `CC(C)c1nn(-c2c(Cl)cccc2Cl)c2nc(Cc3ccc(OCCOC(=O)[C@@H](N)C(C)C)cc3)[nH]c(=O)c12` [Compound A60], the pIC50 in experiment [1] and in experiment [2] was greater than 7.00 in each case.
For the compound `CCOC(=O)CN1CCN(NC(=O)Nc2cccc3c2C(=O)c2c-3n[nH]c2-c2ccc(OCCN3CCCC3)cc2)CC1` [Compound A26], the pIC50 in experiment [3], in experiment [2] and in experiment [4] was greater than 7.00 in each case.
Consider `CC(C)N1CCN(CCOc2ccc(-c3n[nH]c4c3C(=O)c3c(NC(=O)NN5CCOCC5)cccc3-4)c(F)c2)CC1` [Compound A16], for which the pIC50 in experiment [3] is greater than 7.00; in experiment [2], greater than 7.00; in experiment [4] it was greater than 6.00.
Take `Cc1cc(OCCN2CCCCC2)ccc1-c1[nH]nc2c1C(=O)c1c(NC(=O)NN3CCN(C)CC3)cccc1-2` [Compound A8]: the pIC50 in experiment [3], in experiment [2] and in experiment [4] was greater than 7.00 in each case.
As to `Cc1cc(OCCN2CCN(C(C)C)CC2)ccc1-c1[nH]nc2c1C(=O)c1c(NC(=O)NN3CCN(C)CC3)cccc1-2` [Compound A19], the pIC50 in experiment [3] was greater than 7.00; in experiment [2], greater than 7.00; in experiment [4], greater than 6.00.
Regarding `CC(C)OC(=O)CN1CCN(NC(=O)Nc2cccc3c2C(=O)c2c-3n[nH]c2-c2ccc(OCCN3CCCC3)cc2)CC1` [Compound A40], the pIC50 in experiment [3], in experiment [2] and in experiment [4] was greater than 7.00 in each case.
On to `CN1CCN(NC(=O)Nc2cccc3c2C(=O)c2c(-c4ccc(OCCN5CCCC5)c(F)c4)n[nH]c2-3)CC1` [Compound A14], for which the pIC50 in experiment [3], in experiment [2] and in experiment [4] was greater than 7.00 each time.
`CN1CCN(NC(=O)Nc2cccc3c2C(=O)c2c-3n[nH]c2-c2ccc(OCCn3cccn3)cc2)CC1` [Compound A17]: the values for the pIC50 in experiment [3], in experiment [2] and in experiment [4] were greater than 8.00, greater than 7.00 and greater than 7.00, respectively.
For the compound `CN1CCN(CCOc2ccc(-c3n[nH]c4c3C(=O)c3c(NC(=O)NN5CCN(C)CC5)cccc3-4)c(F)c2)CC1` [Compound A13], the pIC50 in experiment [3], in experiment [2] and in experiment [4] was greater than 7.00 each time.
`CN1CCN(NC(=O)Nc2cccc3c2C(=O)c2c-3n[nH]c2-c2ccc(OCC(=O)N3CCCC3)cc2)CC1` [Compound A44]: the pIC50 in experiment [3] is greater than 8.00; in experiment [2] it was greater than 7.00; in experiment [4], greater than 7.00.
Take `CN1CCN(NC(=O)Nc2cccc3c2C(=O)c2c(-c4ccc(OCCN5CCCC5)cc4F)n[nH]c2-3)CC1` [Compound A12]: the pIC50 in experiment [3], in experiment [2] and in experiment [4] was greater than 7.00 in each case.
For `Cc1cc(OCCN2CCCN(C)CC2)ccc1-c1[nH]nc2c1C(=O)c1c(NC(=O)NN3CCN(C)CC3)cccc1-2` [Compound A9], the pIC50 in experiment [3] is greater than 8.00; in experiment [2], greater than 7.00; in experiment [4] it was greater than 7.00.
As to `Cc1cc(OCCn2cccn2)ccc1-c1[nH]nc2c1C(=O)c1c(NC(=O)NN3CCN(C)CC3)cccc1-2` [Compound A11], the pIC50 in experiment [3], in experiment [2] and in experiment [4] was greater than 7.00 in each case.
As to `CC(C)c1nn(-c2c(Cl)cc(Cl)cc2Cl)c2nc(Cc3ccc(NS(=O)(=O)CCCN4CCN(C(C)C)CC4)cc3)[nH]c(=O)c12` [Compound A39], the figures for the pIC50 in experiment [3], in experiment [2] and in experiment [4] were greater than 6.00, greater than 7.00 and greater than 6.00, respectively.
In the case of `O=C(Nc1cccc2c1C(=O)c1c(-c3ccc(OCCN4CCOCC4)c(F)c3)n[nH]c1-2)NN1CCOCC1` [Compound A27], the pIC50 in experiment [3] was greater than 8.00; in experiment [2], greater than 7.00; in experiment [4], greater than 7.00.
With `Cc1cc(-c2[nH]nc3c2C(=O)c2c(NC(=O)NN4CCOCC4)cccc2-3)ccc1OCCN1CCCC1` [Compound A25], the pIC50 in experiment [3], in experiment [2] and in experiment [4] was greater than 7.00 each time.
On to `Cc1cc(-c2[nH]nc3c2C(=O)c2c(NC(=O)NN4CCOCC4)cccc2-3)ccc1OCCN1CCN(C(C)C)CC1` [Compound A24], for which the pIC50 in experiment [3] is greater than 8.00; in experiment [2] it was greater than 8.00; in experiment [4], greater than 7.00.
On to `O=C(O)COc1ccc(-c2n[nH]c3c2C(=O)c2c(NC(=O)NN4CCOCC4)cccc2-3)cc1` [Compound A68], for which the pIC50 is greater than 7.00 in experiment [3], greater than 8.00 in experiment [2] and greater than 7.00 in experiment [4].
Regarding `CC(C)N1CCN(NC(=O)Nc2cccc3c2C(=O)c2c-3n[nH]c2-c2ccc(OCCN3CCCC3)cc2)CC1` [Compound A23], the pIC50 is greater than 7.00 in experiment [3], greater than 8.00 in experiment [2] and greater than 7.00 in experiment [4].
With `COc1cc(-c2[nH]nc3c2C(=O)c2c(NC(=O)NN4CCOCC4)cccc2-3)ccc1OCCN1CCCC1` [Compound A31], the pIC50 in experiment [3], in experiment [2] and in experiment [4] was greater than 7.00 throughout.
For the compound `Cc1cc(OCCCN2CCN(C(C)C)CC2)ccc1-c1[nH]nc2c1C(=O)c1c(NC(=O)NN3CCOCC3)cccc1-2` [Compound A21], the pIC50 is greater than 7.00 in experiment [3], greater than 8.00 in experiment [2] and greater than 6.00 in experiment [4].
For the compound `Cc1noc(COc2ccc(-c3[nH]nc4c3C(=O)c3c(NC(=O)NN5CCOCC5)cccc3-4)cc2)n1` [Compound A35], the values for the pIC50 in experiment [3], in experiment [2] and in experiment [4] were greater than 8.00, greater than 7.00 and greater than 7.00, respectively.
Take `CN1CCN(NC(=O)Nc2cccc3c2C(=O)c2c-3n[nH]c2-c2ccc(O)cc2)CC1` [Compound A15]: the values for the pIC50 in experiment [3], in experiment [2] and in experiment [4] were greater than 8.00, greater than 7.00 and greater than 7.00, respectively.
`CC(C)C(N)C(=O)OCCN1CCN(NC(=O)Nc2cccc3c2C(=O)c2c-3n[nH]c2-c2ccc(OCCN3CCCC3)cc2)CC1` (centres unmarked) [Compound A33]: the pIC50 in experiment [3], in experiment [2] and in experiment [4] was greater than 7.00 throughout.
For `Cc1noc(COc2ccc(-c3[nH]nc4c3C(=O)c3c(NC(=O)NN5CCN(C)CC5)cccc3-4)cc2)n1` [Compound A45], the figures for the pIC50 in experiment [3], in experiment [2] and in experiment [4] were greater than 8.00, greater than 7.00 and greater than 7.00, respectively.
